Consider two compounds from patent US7521596B2, “Method for controlling weeds” (Sumitomo Chemical Company, Limited, priority 2004, dated 2009).

Data set [1] concerns wild-type tobacco line SR-1. Description: Spray test of the present herbicidal compound, wild-type tobacco (negative control). Format: in vivo, Nicotinia tabacum. The settings on record: wild type SR-1, score 0 (died) to 3; for average phytotoxicity score (sensitivity to carfentrazone-ethyl): applied as AIM HERBICIDE dry flowable; for average phytotoxicity score (sensitivity to flufenpyr-ethyl): about 2 weeks after spraying, average of 4 individuals. The method, then: (§1) Seeds of the homozygote lines selected in Example 4 (seeds of lines #17 and #25 of the recombinant tobacco to which plasmid pBI-NdG6-rSt-1609soy has been introduced, and seeds of the line 1584soy#16 of the recombinant tobacco to which plasmid pBI-NdG6-rSt-1584soy has been introduced) were aseptically seeded on MS agar medium containing 100 mg/L kanamycin. Also, seeds of the wild-type tobacco line SR-1 were aseptically seeded on MS agar medium. After about 2 weeks, germinated seedlings were observed.
(§2) Germinated individuals were transplanted to growing pots containing horicultural soil (Kureha Engei Baido manufactured by Kureha Chemical Industry Co., Ltd.), acclimated to the external environment in a growth chamber, then grown for about 2 weeks at 23° C., 23 hours of day length in a growth chamber. Thus obtained plants were applied to the spray test of the present herbicidal compound, flufenpyr-ethyl.
(§3) Flufenpyr-ethyl was dissolved in Solvesso cocktail mixed Solvesso 200 (manufactured by Valent) and Sorpol 3816 (manufactured Sumitomo Chemical Co., Ltd.) at the ratio of 87.5:10 such that flufenpyr-ethyl was respectively contained 0.89 mg or 1.78 mg in 0.5 mL Solvesso cocktail. The spray liquid of flufenpyr-ethyl was prepared as the aqueous solution containing the Solvesso cocktail of 2.5% concentration in which the compound was dissolved and Agri dex of 1% concentration (manufactured by Valent) as adjuvant.
(§4) Spray of the spray liquid to the plant above described was carried out, by using running automatic spray machine (manufactured by Nambasekkei), such that spray liquid 20 mL was sprayed to the recombinant tobacco seedlings put at 0.9 square meter of the sprayed area in a uniform way. After about 2 weeks, the sensitivity of the applied recombinant tobacco line to flufenpyr-ethyl was compared to the sensitivity of the wild-type tobacco line SR-1 to flufenpyr-ethyl. In the above spray test, 4 individuals of the recombinant tobacco were used with respect to each applied amount of flufenpyr-ethyl. The sensitivity of the recombinant tobacco to flufenpyr-ethyl was decided by scoring it based on the index below, and calculating the average of the score of 4 individuals with respect to each recombinant tobacco line and applied amount for it. The same spray test of wild-type line SR-1 was carried out as a negative control.
(§5) <Scoring Index Based on the Degree of Phytotoxicity as Dying of the Individual and Browning or Whitening of the Leaves or Stems Caused by Compound Spraying>
(§6) As to the homozygote line 1609soy#25 selected in Example 4 from among the recombinant tobacco lines to which a DNA having a nucleotide sequence encoding the amino acid sequence of SEQ ID NO: 1 has been introduced, and the wild-type tobacco line SR-1, their sensitivities to the compound (I), carfentrazone-ethyl and sulfentrazone were investigated according to the method described in Example 5 (evaluation by scoring index based on the degree of phytotoxicity as dying of the individual and browning or whitening of the leaves or stems caused by compound spraying). […]

The subject of data set [2] is wild-type soybean line (cv. Jack). Description: Spray test of the present herbicidal compound, wild-type soybean (negative control). The data set is classed as in vivo. As to conditions: sprayed 21st day after seeding, scored 2 weeks after spraying, score 0 (died) to 3. The method, then: (§7) Seeds of these lines were seeded and grown in growing pots containing horicultural soil (Kureha Engei Baido manufactured by Kureha Chemical Industry Co. Ltd.) When trifoliate leaves were developed after germination, the seedlings were transplanted to growing pots containing the soil prepared by mixing equal amount of the Kureha Engei Baido and field soil, and then grown in a greenhouse according to the method of Example 17 of WO0304370 to obtain seeds of T2 generation of each line. Among the obtained T2 generations, seeds of T2 generation of the line J18 (seeds of the recombinant soybean) were seeded in growing pots containing horicultural sail (Kureha Engei Baido manufactured by Kureha Chemical Industry Co., Ltd.) and grown. According to the above method described in Example 5, it was sprayed carfentrazone-ethyl to the seedling on the 21st day after seeding, and compared the sensitivity to carfentrazone-ethyl of the recombinant soybean with the sensitivity to carfentrazone-ethyl of wild-type soybean line (cv. Jack) at 2 weeks after spraying. The spray liquid of the above herbicidal compound was prepared as follows.
(§8) The spray liquid was prepared by diluting dry flowable preparation of carfentrazone-ethyl (AIM™ HERBICIDE manufactured by FMC, containing 40% (w/w) of carfentrazone-ethyl) with Agri dex (manufactured by Valent) 1% aqueous solution to be contained 1.79 mg, 3.57 mg or 7.14 mg of carfentrazone-ethyl in the spray liquid.
(§9) The sensitivity of the recombinant soybean to carfentrazone-ethyl was decided by scoring it based on the index below, and calculating the average of the scores with respect to each recombinant soybean line and applied amount for it. The same spray test of the wild-type soybean line (cv. Jack) was carried out as a negative control.
as §5

Data set [3] has as its system recombinant soybean line J18 (cytochrome P450 of SEQ ID NO: 1 introduced). Description: Spray test of the present herbicidal compound, recombinant soybean line J18. Format: in vivo. The settings on record: for average phytotoxicity score (sensitivity to carfentrazone-ethyl): J18 (T2 generation), sprayed 21st day after seeding, scored 2 weeks after spraying, score 0 (died) to 3. The method, then:
as §7, §8, §9, §5

Data set [4] concerns recombinant tobacco line 1609soy#25 (cytochrome P450 of SEQ ID NO: 1 introduced). The data set is described as follows: Spray test of the present herbicidal compound, recombinant tobacco line 1609soy#25. The data set is classed as in vivo, Nicotinia tabacum. As to conditions: score 0 (died) to 3; for average phytotoxicity score (sensitivity to carfentrazone-ethyl): applied as AIM HERBICIDE dry flowable; for average phytotoxicity score (sensitivity to flufenpyr-ethyl): about 2 weeks after spraying, average of 4 individuals. The method, then:
as §1, §2, §3, §4, §5, §6

The subject of data set [5] is recombinant tobacco line 1584soy#16 (cytochrome P450 of SEQ ID NO: 2 introduced). The data set is described as follows: Spray test of the present herbicidal compound, recombinant tobacco line 1584soy#16. The data set is classed as in vivo, Nicotinia tabacum. As to conditions: about 2 weeks after spraying, average of 4 individuals, score 0 (died) to 3. The method, then:
as §1, §2
(§10) Flufenpyr-ethyl was dissolved in Solvesso cocktail mixed Solvesso 200 (manufactured by Valent) and Sorpol 3816 (manufactured Sumitomo Chemical Co., Ltd.) at the ratio of 87.5:10 such that flufenpyr-ethyl was respectively contained 0.89 mg or 1.78 mg in 0.5 mL Solvesso cocktail. […]

Data set [6] concerns recombinant tobacco line 1609soy#17 (cytochrome P450 of SEQ ID NO: 1 introduced). Description: Spray test of the present herbicidal compound, recombinant tobacco line 1609soy#17. The data set is classed as in vivo, Nicotinia tabacum. The settings on record: about 2 weeks after spraying, average of 4 individuals, score 0 (died) to 3. The method, then: as §1, §2, §10

Turning to `CCOC(=O)C(Cl)Cc1cc(-n2nc(C)n(C(F)F)c2=O)c(F)cc1Cl` (stereo not drawn) [carfentrazone-ethyl], the “average phytotoxicity score (sensitivity to carfentrazone-ethyl)” value in data set [1] (0.446 mg/20 mL spray liquid) is recorded as 1.0; in data set [1] (0.893 mg/20 mL spray liquid), 0.0; in data set [1] (4.46 mg/20 mL spray liquid), 0.0; in data set [2] (1.79 mg/20 mL spray liquid), 1.0; in data set [2] (3.57 mg/20 mL spray liquid), 0.9; in data set [2] (7.14 mg/20 mL spray liquid), 0.3. In addition, the “average phytotoxicity score (sensitivity to carfentrazone-ethyl)” value in data set [3] (1.79 mg/20 mL spray liquid) was found to be 1.8; in data set [3] (3.57 mg/20 mL spray liquid), 1.4; in data set [3] (7.14 mg/20 mL spray liquid), 0.9; in data set [4] (0.446 mg/20 mL spray liquid), 2.5; in data set [4] (0.893 mg/20 mL spray liquid) it was 1.8; in data set [4] (4.46 mg/20 mL spray liquid), 1.5. Moreover, in data set [3] (line J18, 1.79, 3.57 or 7.14 mg in the spray liquid), the “phytotoxicity / resistance as compared to the wild-type plant cv. Jack” value is “the phytotoxicity was reduced and remarkable improvement of the resistance was recognized”.
In the case of `CCOC(=O)COc1cc(-n2ncc(C(F)(F)F)c(C)c2=O)c(F)cc1Cl` [flufenpyr-ethyl], the “average phytotoxicity score (sensitivity to flufenpyr-ethyl)” value in data set [5] (0.89 mg/20 mL spray liquid) is 3.0; in data set [5] (1.78 mg/20 mL spray liquid), 3.0; in data set [1] (0.89 mg/20 mL spray liquid) it was 1.7; in data set [1] (1.78 mg/20 mL spray liquid), 0.0; in data set [4] (0.89 mg/20 mL spray liquid) it was 3.0; in data set [4] (1.78 mg/20 mL spray liquid) it was 3.0. In addition, the “average phytotoxicity score (sensitivity to flufenpyr-ethyl)” value in data set [6] (0.89 mg/20 mL spray liquid) and in data set [6] (1.78 mg/20 mL spray liquid) was 3.0 in each case.
